For data set [1] the following is noted: 101 kPa, Liquid; for viscosity: Capillary tube (Ostwald / Ubbelohde) method; for speed of sound: Frequency=2 MHz, Linear variable-path acoustic interferometer; for mass density: Pycnometric method.
Data set [2] can be described thus: xn = mol fraction of the nth substance listed. Conditions: 101 kPa, Liquid, x1 = 1; for viscosity: Capillary tube (Ostwald / Ubbelohde) method; for speed of sound: Frequency=2 MHz, Linear variable-path acoustic interferometer; for mass density: Pycnometric method.

Molecules are shown by their SMILES. ± gives the expanded uncertainty stated by the source.

This passage reports viscosity, speed of sound and mass density results from the NIST ThermoML archive (doi:10.1016/j.fluid.2007.01.001).

In the case of `CCCCCC(C)O` (configuration not stated) [2-heptanol], in data set [1] (298.15 K), the viscosity – broadly, the internal friction of a fluid under shear – is recorded as 5.088 ± 0.41 mPa·s; the speed of sound (commonly how fast a sound wave travels through the sample) is 1314 ± 3 m/s; the mass density (usually mass per unit of volume) stood at 813.74 ± 0.69 kg/m3. Also, in data set [1] (308.15 K), the viscosity is given as 3.683 ± 0.3 mPa·s, the speed of sound worked out at 1274 ± 3 m/s and the mass density stood at 804.88 ± 0.7 kg/m3.

With `CCCCC(C)O` (configuration not stated) [2-hexanol], in data set [1] (298.15 K), the viscosity is recorded as 4.105 ± 0.33 mPa·s, the speed of sound was 1290 ± 3 m/s and the mass density is 810.84 ± 0.7 kg/m3. In addition, in data set [1] (308.15 K), the viscosity is listed as 2.92 ± 0.23 mPa·s, the speed of sound was 1255 ± 3 m/s and the mass density is reported as 801.75 ± 0.71 kg/m3.

Turning to `CCCCCCC(C)O` (configuration not stated) [2-octanol], in data set [1] (298.15 K), the viscosity worked out at 6.429 ± 0.52 mPa·s, the speed of sound came out at 1328 ± 3 m/s and the mass density amounted to 817.08 ± 0.58 kg/m3. Moreover, in data set [1] (308.15 K), the viscosity came out at 4.365 ± 0.35 mPa·s, the speed of sound amounted to 1292 ± 3 m/s and the mass density was 809.89 ± 0.6 kg/m3.

`Cc1ccccc1` [toluene]: in data set [1] (298.15 K), the viscosity amounted to 0.554 ± 0.044 mPa·s, the speed of sound amounted to 1306 ± 3 m/s and the mass density was 862.18 ± 0.73 kg/m3. Also, in data set [1] (308.15 K), the viscosity is reported as 0.496 ± 0.04 mPa·s, the speed of sound is reported as 1270 ± 3 m/s and the mass density amounted to 852.79 ± 0.74 kg/m3.

`Cc1ccccc1` [toluene] + CCCCC(C)O: in data set [2] (298.15 K), the viscosity worked out at 0.554 ± 0.044 mPa·s, the speed of sound is 1306 ± 3 m/s and the mass density was found to be 862.18 ± 0.73 kg/m3. Also, in data set [2] (308.15 K), the viscosity was 0.496 ± 0.04 mPa·s, the speed of sound was 1270 ± 3 m/s and the mass density amounted to 852.79 ± 0.74 kg/m3.

Consider `Cc1ccccc1` [toluene] + CCCCCC(C)O, for which, in data set [2] (298.15 K), the viscosity came out at 0.554 ± 0.044 mPa·s, the speed of sound is recorded as 1306 ± 3 m/s and the mass density is reported as 862.18 ± 0.73 kg/m3. In data set [2] (308.15 K), the viscosity worked out at 0.496 ± 0.04 mPa·s, the speed of sound is 1270 ± 3 m/s and the mass density was found to be 852.79 ± 0.74 kg/m3.

Take `Cc1ccccc1` [toluene] + CCCCCCC(C)O: in data set [2] (298.15 K), the viscosity came to 0.554 ± 0.044 mPa·s, the speed of sound was 1306 ± 3 m/s and the mass density came out at 862.18 ± 0.73 kg/m3. Besides, in data set [2] (308.15 K), the viscosity was determined as 0.496 ± 0.04 mPa·s, the speed of sound was determined as 1270 ± 3 m/s and the mass density is recorded as 852.79 ± 0.74 kg/m3.
